Source: paper PMC4434909, “In vitro properties of designed antimicrobial peptides that exhibit potent antipneumococcal activity and produces synergism in combination with penicillin” (Scientific Reports, 2015)

Legend:
[1] = tested on: NL20 cell line; test: Cytotoxicity against human cell lines (CellTiter 96 AQueous); assay type: cell-based
Procedure: (§1) Both the NL20 human lung bronchial normal epithelial cell line and the A549 human lung alveolar adenocarcinoma epithelial cell line were used for cell cytotoxicity tests. Besides investigating the cytotoxicity of peptides, differences in cell viability between the two cell lines can be used to evaluate the cell line selectivity and to assess potential anticancer potential of the peptides. NL20 cell line was grown in Ham's F12 medium and A549 cell line was grown in Roswell Park Memorial Institute medium. Both media were supplemented with fetal bovine serum to 10% (v/v) as growth medium or 2% (v/v) as maintenance medium in cell cytotoxicity testing. The assay was performed as described by Lee et al.[26]. NL20 cells was seeded overnight at 3 × 10^4 cells/well in 96-well cell culture-treated flat bottom microtiter plate and treated with serial dilutions of peptide at a final concentration of 1.95–250 μg/ml. PEN was tested from 0.03–4 μg/ml, the same range used to classify the susceptibility of pneumococcal isolates in this study. Test using A549 cells followed the same procedures with 1 × 10^4 cells/well. Plates were incubated at 37°C under 5% CO2 for 24, 48, and 72 hrs. Cell viability was detected by using CellTiter 96® AQueous Non-Radioactive Cell Proliferation assay (Promega, USA) and the colorimetric changes were read with Glomax multidetection system (Promega, USA) at OD 490 nm. Results were pooled from three independent experiments and expressed as mean ± SD. […] Imax was the percentage of cell viable treated with peptides/PEN at the maximum concentration as defined throughout this study (all peptides 250 μg/ml, PEN 4 μg/ml).

[2] = tested on: A549 cell line; test: as above; assay type: cell-based
Procedure: as §1

[3] = tested on: human erythrocytes; test: Hemolytic activity; assay type: cell-based
Procedure: Hemolytic assay was performed as described. Freshly drawn human erythrocytes were rinsed three times with PBS and resuspended in PBS to 4% (v/v). One hundred microliters of the suspension was added to 96-well microtiter plate containing equal volume of peptides to give final concentrations of peptides encompassing the range of 1.96–250 μg/ml. PBS and 0.1% (v/v) Triton-X 100 were used as 0% and 100% hemolytic control respectively. Plates were incubated at 37°C for 1 hr. Subsequently, the plate was centrifuged and the supernatant was transferred to a new plate. The release of hemoglobin in the supernatant was monitored at absorbance of 450 nm using Glomax Multidetection system (Promega, USA). Results were pooled from three independent experiments and expressed as mean ± SD. HC10 and HC50 were defined as the peptide concentrations causing 10% and 50% hemolysis on human erythrocytes, respectively. Hmax was the percentage hemolysis observed at the maximum concentration as defined throughout this study (all peptides 250 μg/ml, PEN 4 μg/ml).

[4] = tested on: PRSP, PISP, and PSSP; assay type: cell-based, Streptococcus pneumoniae; settings: 30 min post treatment, 2× MIC, 5 × 10^6 CFU/ml in CAMHB, plate count, relative to untreated control
Procedure: This assay was performed to evaluate the killing kinetics of peptides. One PRSP, PISP, and PSSP isolate were each grown and prepared to 5 × 10^6 CFU/ml. Each isolate in CAMHB was challenged with peptides at two times the respective MIC values. At the indicated time intervals (0, 30, 60, 120, 150, 180, 210, and 240 min; “0” indicate pretreatment), 10 μl of suspension was removed and immediately serially diluted in cold phosphate-buffered saline to arrest further reaction before spread-plated on MHA to obtain viable colony counts. The percentage cell recovered was calculated by dividing the surviving CFU of the treated cells over the surviving CFU of the untreated control cells at the respective time points. Results were pooled from three independent experiments and expressed as mean ± standard deviation (SD).

penicillin [reference compound]
IC50, NL20 cell line, 24 hrs [1]: >4 µg/mL
IC50, NL20 cell line, 48 hrs [1]: >4 µg/mL
IC50, NL20 cell line, 72 hrs [1]: >4 µg/mL
Imax, NL20 cell line, 24 hrs [1]: 105.2 ± 0.2%
Imax, NL20 cell line, 48 hrs [1]: 106.1 ± 6.2%
Imax, NL20 cell line, 72 hrs [1]: 88.3 ± 0.4%
IC50, A549 cell line, 24 hrs [2]: >4 µg/mL
IC50, A549 cell line, 48 hrs [2]: >4 µg/mL
IC50, A549 cell line, 72 hrs [2]: >4 µg/mL
HC10 [3]: >4 µg/mL
HC50 [3]: >4 µg/mL
CFU recovered (viability), all three groups of pneumococci [4]: 60–78%
